In patent publication US10759683B2, “Methods for removing mercury contaminant from aqueous solutions, and bioreactors therefor” (priority 2018, dated 2020):
Values joined by “and” are separate entries in the source; they are usually repeats but may differ in a detail not shown here. Identical values can stand only once. Like-named read-outs stand apart in the source and are kept apart here.

What was measured:
[1] = system: Geobacter sulfurreducens PCA; test: Bioreactor Hg^0 production and growth of Geobacter sulfurreducens PCA supplied with Hg^II; type: cell-based; details: for Cumulative Hg(0) production / Final O.D. 600 nm: live cells, 28 C, Hg 250 pM
From the text: Geobacter sulfurreducens PCA cells were revived from cryostock and grown in defined medium (herein referred to as GSMM) according to previous work (Schaefer, J. K.; Morel, F. M. M., High methylation rates of mercury bound to cysteine by Geobacter sulfurreducens. Nature Geoscience 2009, 2, (2), 123-126) with the following modification: resazurin, the color indicator used to monitor anoxia, was removed to avoid issues with abiotic Hg reduction given that resazurin is a reducing agent. Cells were grown chemotrophically in the dark at 28° C. Cells took between 10 to 12 days to re-initiate growth, as such, cultures were maintained by re-inoculating fresh GSMM every 4 days with a 10% inoculum in a final volume of 10 mL. Upon reaching late exponential phase, a 10% inoculum was used to start cultures in GSMM with a final volume of 75 mL destined for the bioreactor. Upon reaching late exponential phase a 10% inoculum was used to inoculate the bioreactor where cells were supplied with Hg^II in 560 mL of PYEΔSO4^2− or GSMM medium (see Table 1).

[2] = system: Heliobacterium modesticaldum Ice1; test: microbe, parasite or virus in culture
Method: The following strains were used in these studies: Heliobacterium modesticaldum Ice1, Clostridium acetobutylicum ATCC 824, Geobacter sulfurreducens PCA and Escherichia coli K-12. For phototrophic growth of H. modesticaldum, cells were supplied with constant illumination at 80 μmolphoton·m^−2·s^−1 at 50° C. whereas chemotrophic cells were grown at the same temperature in the dark in line with previous work.^32 C. acetobutylicum and E. coli were grown at 37° C. whereas G. sulfurreducens was grown at 28° C., all chemotrophically in the dark.
[…] Hg growth assays were carried out under the same phototrophic and chemotrophic conditions mentioned above.
Stock solutions used in cell cultures were all prepared following anaerobic techniques. […] For DMSO controls, the DMSO solution was bubbled with N2 prior to being added to the bioreactor; final concentration of DMSO in the reactor was 2.8 mM. Sodium nitrite stocks were prepared to a final concentration of 10 mM in ultra pure miliQ, filter-sterilized, sparged with N2 and stored at 4° C. in the dark; final concentration of NO2^− in the reactor was 10 μM. For experiments where HCO3^− was supplied, a stock solution of 1 M was prepared by dissolving NaHCO3 in ultra pure MiliQ and autoclaving for 30 minutes at 121° C. under 80% N2/20% CO2 atmosphere prior to use. Fumarate stock solutions were prepared at a final concentration of 40 mM in ultra pure miliQ, filter sterilized (0.2 μm pore size), bubbled with N2, sealed and crimped shut in sterile serum bottles prior to use. All equipment used in the anaerobic glove box was conditioned for at least 48 hours prior to use.
For Heliobacterium modesticaldum Ice1, new cultures were started from a cryostock for every bioreactor experiment. Cells were revived in DSMZ medium 655 (herein referred to as PYE) previously used to isolate H. modesticaldum (Kimble, L. K.; Mandelco, L.; Woese, C. R.; Madigan, M. T., Heliobacterium modesticaldum, sp. nov., a thermophilic heliobacterium of hot springs and volcanic soils. Archives of Microbiology 1995, 163, (4), 259-267). Cultures started from cryostock were grown phototrophically in PYE with an incandescent light source and constant illumination of 80 μmol photon m^−2s^−1 at 50° C. in line with previous work (Kimble, above) until reaching early stationary phase. Afterwards, a 10% inoculum was used to re-inoculate 10 mL of fresh PYE and cells were grown phototrophically (with the same light intensity) or chemotrophically (in the dark) at 50° C. These cultures were used to establish finely resolved growth curves and Hg growth assays (see FIGS. 1 and 2).
For experiments testing the effect of carbon source on Hg^0 production some modifications to the initial PYE medium growth protocol were made. Phototrophic H. modesticaldum cells were grown with pyruvate, acetate, acetate+HCO3^− and/or yeast extract alone as a carbon source. Cells were grown until late exponential phase before being subsampled to supply a 10% inoculum for cultures with a final volume 75 mL destined for the bioreactor and grown under the same conditions (see Table 1). […] Upon reaching late exponential phase, cells were inoculated into the bioreactor as a 10% inoculum in a final volume of 560 mL of media with the desired carbon source treatment.
Please refer to the methods section of Gregoire and Poulain (2016)^21 (which is herein incorporated by reference in its entirety) for a schematic of the bioreactor setup employed and the Hg^0 sampling methodology. Note that phototrophic bioreactor experiments were carried out using a 200 W incandescent clear light bulb at a constant illumination at 20 μmolphoton·m^−2·s^−1.

[3] = system: Heliobacterium modesticaldum Ice1; test: Hg growth assays with Heliobacterium modesticaldum Ice1; type: cell-based; details: 500 nM HgCl2 supplied as two doses of 250 nM 24 hours apart, phototrophic and chemotrophic cells in PYE
Method: One-way ANOVAs were performed for phototrophic and chemotrophic Hg exposure assays using R statistical software (R Core Team R: A Language and Environment for Statistical Computing, R Foundation for Statistical Computing: 2014). In the event of detecting a significant difference, assumptions of constant variance and normality were verified with the Brusch-Pagan test and the Shapiro-Wilks test, respectively, with the significance thresholds set to p=0.05 for each test. Significant differences were then identified using the Tukey HSD test. The sample size employed for growth assays was n=3 per treatment. All assumptions were passed for significant differences and these values are reported in the Brief Description of the Drawings (see FIG. 4). A non-linear regression model was fit to the cumulative Hg^0 production data as a function of pyruvate concentration using Sigmaplot software. In this instance, a natural logarithmic function was fit to a data set of n=8. Given the significant fit, assumptions of constant variance and normality were verified with the Sigmaplot software with the significant threshold set to p=0.05 for each test.

[4] = system: Clostridium acetobutylicum ATCC 824; test: Bioreactor Hg^0 production and growth of Clostridium acetobutylicum ATCC 824 supplied with Hg^II; type: cell-based; details: chemotrophy
Method: For Clostridium acetobutylicum ATCC 824, new cultures were started for every bioreactor experiment. Cells were revived in DSMZ medium 104b (herein referred to as PYX). Cells were grown in the dark at 37° C. until reaching early stationary phase after which point they were rotated as a 1% inoculum in a final volume of 10 mL into fresh PYX. Cells were grown to late exponential phase, and re-inoculated as a 1% inoculum in a final volume of 75 mL of PYX in cultures destined for the bioreactor. Experiments were performed in PYE where all SO4^2− salts were substituted with chloride salts (PYEΔSO4^2−) to avoid competition between Hg^II reduction and SO4^2− reduction. Cells were also supplied with Hg^II in DSMZ medium 104b to account for the effect of suboptimal growth medium (see Table 1 and Table 3). […] The initial volume of medium in the bioreactor was corrected to ensure that identical volumes were maintained throughout all experiments.

[5] = chemotrophy, pyruvate 20 mM + YE 4 g L-1, fumarate 40 mM
[6] = live cells, phototrophy, 50 C, acetate 30 mM + YE 4 g L-1, HCO3- 10 mM, Hg 250 pM
[7] = live cells, 37 C, pyruvate 20 mM + YE 4 g L-1 (PYEΔSO4^2-), NTZ 10 μM + DMSO 2.8 mM, Hg 250 pM
[8] = chemotrophy, pyruvate 20 mM + YE 4 g L-1 (PYEΔSO4^2-), NTZ 10 μM + DMSO 2.8 mM

With O=C(O)/C=C/C(=O)O [Fumarate] the Cell growth ([1]; in the presence of fumarate) was “able to grow”, the “Cumulative Hg(0) production” value ([1]; chemotrophy, acetate 10 mM (optimal growth medium), fumarate 40 mM) was 19.81 pmol and 21.48 pmol and the “Cumulative Hg(0) production” value [1, 5] was 6.65 pmol. The “Final O.D. 600 nm” value [1, 5] was 0.185 and the “Decrease of Hg^0 production in the presence of fumarate” value ([1]; with vs without fumarate as terminal electron acceptor, pyruvate + YE) was 50%.
With O=C([O-])O.[Na+] [HCO3—, NaHCO3] the “Cumulative Hg(0) production” value [2, 6] was 43.31 pmol and 42.50 pmol and the “Final O.D. 600 nm” value [2, 6] was 0.02 and 0.039.
For [Cl][Hg][Cl] [Hg^II, HgCl2], the “Cell health at increased mercury concentration” value ([2]; 2 nM Hg, phototrophically grown cells, 48 hours) was “unaffected” and the “Physiological advantage / growth (rate, yield) with sublethal Hg” value [3] was “No physiological advantage was observed except for a small increase in the yield of phototrophically grown cells”.
With O=N[O-].[Na+] [NO2, Sodium nitrite] the “Cumulative Hg(0) production” value [2] was 53.36 ± 0.13 pmol and 53.47 pmol and 53.66 pmol, the “Final O.D. 600 nm” value [2] was 0.034 and 0.023 and the “Increase in the amount of Hg^0 produced” value [2] was 30%.
CC(=O)Oc1ccccc1C(=O)Nc1ncc([N+](=O)[O-])s1 [NTZ, nitazoxanide] was tested, and the inhibition at 10 µM ([2]; Heliomicrobium modesticaldum, ICE1, read-out: Inhibition (decrease) of chemotrophic Hg^0 production compared to controls) was 88%, the “Final O.D. 600 nm” value ([2]; live cells, chemotrophy (dark), 50 C, pyruvate 20 mM + YE 4 g L-1, NTZ 10 μM + DMSO 2.8 mM, Hg 250 pM) was 0.065 and 0.057 and the Cell growth ([2]; phototrophic cells, NTZ 10 μM) was “did not grow”. For the same compound, the “Lag: peak of Hg^0 production occurring later than previously observed” value ([2]; phototrophic cells, NTZ 10 μM) was 11 h, the “Decrease of Hg^0 production in the presence of NTZ” value ([4]; NTZ 10 μM vs DMSO control) was 98% and the “Cumulative Hg(0) production” value [4, 7] was 1.20 pmol. The “Final O.D. 600 nm” value [4, 7] was 0.146, the “Decrease of Hg^0 production in the presence of NTZ” value ([1]; chemotrophy, NTZ 10 μM vs DMSO control) was 62% and the “Cumulative Hg(0) production” value [1, 8] was 3.19 pmol. The “Final O.D. 600 nm” value [1, 8] was 0.041.
